{"source": "patent EP4119948A1", "about": "“METHOD FOR STRATIFICATION AND TREATMENT OF MULTIPLE SCLEROSIS” (Universität Zürich, priority 2021, dated 2023)", "key": {"[1]": {"system": "CSF-infiltrating CD4+ T cells", "test": "Proliferative response (3H-thymidine, stimulation index) of PHA-expanded CSF-infiltrating CD4+ T cells to peptides presented by autologous PBMCs", "type": "cell-based, human", "conditions": "peptide 10 µM, 72 h, 105 MS patients", "procedure": "(§1) PBMCs were freshly isolated using Ficoll (Eurobio, Germany) density gradient centrifugation. CSF-infiltrating CD4^+ T cells were expanded with PHA in a single round of stimulation using a previously reported protocol aimed to reduce TCR repertoire bias (Planas et al., […], Sci Transl Med, 10(462):eaat4301). 6 × 10^4 PHA-expanded CSF-infiltrating CD4^+ T cells were seeded in quadruplicate with 2 × 10^5 irradiated autologous PBMCs as antigen presenting cells and stimulated with peptides (Table 2) at a final concentration of 10 µM and with a T Cell Activation Kit (anti-CD3, anti-CD28, anti-CD2 beads) (Miltenyi Biotec) as positive control. Table 2. GDP-L-FS, myelin and CEF Peptides (amino acid sequences)\nProliferation was measured 72 h after stimulation using 3H-thymidine (Hartmann Analytic, Braunschweig, Germany) as previously reported (Planas et al., 2018). The stimulation index of single wells (SI) was calculated as follows: SI = (cpm well with peptide) / (Mean cpm wells without peptide). A well was considered positive if SI ≥2."}, "[2]": {"system": "CSF-infiltrating CD4+ T cells", "test": "IFN-γ release (ELISA) of PHA-expanded CSF-infiltrating CD4+ T cells stimulated with peptides presented by autologous PBMCs", "type": "cell-based, human", "conditions": "peptide 10 µM, 105 MS patients", "procedure": "as §1\nRelease of IFN-γ was measured using the ELISA MAX™ Deluxe Set Human IFN-γ (Biolegend, San Diego, CA, USA) according to the manufacturer's instructions. A well was considered positive if IFN-γ ≥20 pg/ml and a patient was considered positive for a peptide if the mean IFN-γ of the four wells was ≥ 20 pg/ml and at least 3 of the 4 wells were positive."}}, "data": [{"substance": "MBP 83-99 (ENPVVHFFKNIVTPRT; listed as Homo sapiens) [MBP (83-99), myelin peptide …]", "values": [{"measurement": "Positive wells % Proliferation", "setting": "[1]; well positive if SI ≥2, quadruplicates (420 wells per peptide)", "value": 1.92, "unit": "%"}, {"measurement": "Positive patients % Proliferation", "setting": "[1]; patient positive if mean SI of four wells ≥2 and at least 3 of four wells SI ≥2", "value": 0.96, "unit": "%"}, {"measurement": "Positive wells % IFNγ release", "setting": "[2]; well positive if IFN-γ ≥20 pg/ml, quadruplicates (420 wells per peptide)", "value": 6.28, "unit": "%"}, {"measurement": "Positive patients % IFNγ release", "setting": "[2]; patient positive if mean IFN-γ of four wells ≥20 pg/ml and at least 3 of 4 wells positive", "value": 5.71, "unit": "%"}]}]}
